Measured values as given in patent US6046228A, “Anti-viral pharmaceutical compositions containing saturated 1,2-dithiaheterocyclic compounds and uses thereof” (priority 1999, dated 2000).
Where two headings read alike, the source gives them in different places.

Key:
[1] = test system: monocyte-macrophage (Mo/M.PHI.) cultures; assay: cytotoxicity in monocyte-macrophage cultures; format: cell-based
Experimental: (§1) Initial anti-HIV screening was performed with CEM-SS cells and HIV-1RFusing the XTT cytoprotection assay as previously described (Weislow et al., J. National Cancer Inst. 81: 577-586, (1989)). HIV-1 isolates included common laboratory stains (RF, IIIB and MN), as well as a panel of HIV-1 clinical isolates (Cushman et al., J. Med. Chem. 37: 3040-3050, (1994)). The pyridone-resistant HIV-1A17 isolate (Nunberg et al., J. Virol., 65: 4887-4892 (1991)) was obtained from Emilio Emini at Merck Sharpe and Dohme Laboratories. Phytohemagglutinin-stimulated human peripheral blood lymphocytes (PBLs) and fresh monocyte-macrophage (Mono/MF) cultures were prepared and utilized in antiviral assays as previously described (Rice et al., Proc. Nat'l. Academy Science, USA 90: 9721-9724, (1993)); (Cushman et al., J. Med. Chem. 37: 3040-3050, (1994)). EC50 values for these cultures indicate the drug concentration that provided a 50% reduction in viral p24 production. […] The compounds can be synthesized according to the teachings of Singh et al., Sulfur Letters 8: 107-114, (1988). The 4,5-cis-dihydroxy(1,1-dioxy-1,2,-dithiohexane) compound (NSC 624151) has been abbreviated as 624151 for convenience. MT-2, MT-4, U1, HeLa-CD4-LTR-β-gal and 174xCEM cells were obtained from the AIDS Research and Reference Program (National Institute of Allergy and Infectious Disease, National Institutes of Health, Bethesda, Md. USA), as were the HIV-2MS and the AZT-resistant HIV-1G910-6 isolates.

[2] = test system: HIV-1RF; assay: XTT cytoprotection (cytopathicity) anti-HIV assay, CEM-SS cells; format: cell-based; conditions: for EC50: Human immunodeficiency virus 1, CEM-SS; for antiviral activity / efficacy: in words
Experimental: as §1, with “The 4,5-cis-dihydroxy(1,1-dioxy-1,2,-dithiohexane) compound (NSC 624151) has been abbreviated as 624151 for convenience.” left out
(§2) Racemate and enantiomers of the cis-1,1-dioxo[1,2]dithiane-4,5-diol were synthesized and evaluated for antiviral activity in the XTT assay as described hereinabove.

[3] = biological target: T1, HIV-1 p7NC protein (Human immunodeficiency virus type 1 group M subtype B, UniProt P04591); assay: Trp37 zinc finger fluorescence assay (zinc ejection from p7NC); format: biochemical; conditions: in words; for zinc ejection: FIG. 1(A)
T1 construct: recombinant HIV-1 p7NC protein
Experimental: Fluorescence measurements of the Trp^37 residue in the C-terminal zinc finger of the recombinant HIV-1 p7NC protein were performed as previously described (Rice et al., Science 270:1194, 1995). The p7NC protein was prepared at 20 μg/ml in 10 mM sodium phosphate buffer (pH 7.0), treated with 25 μM of each compound, then after indicated time intervals the samples were diluted 1/10 in 10 mM sodium phosphate buffer (pH 7.0) and the fluorescence intensity measured. The excitation and emission wavelengths utilized with the Shimadzu RF5000 spectrofluorimeter were 280 nm and 351 nm, respectively. In an alternate assay, the zinc-selective fluorescent probe N-(6-methoxy-8quinolyl-)-p-toluenesulfonamide (TSQ, Molecular Probes, Eugene, Oreg.) originally described by Fredrickson (J. Neurosci. Meth. 20:91, 1987) was utilized to measure zinc released from the p7NC protein in vitro. Briefly, 2 μM recombinant HIV-1 p7NC protein in 10 mM sodium phosphate buffer, pH 7.0, 10% glycerol was treated with 10 μM 624151 ([…] total volume in 96-well plates), and the time-dependent increase in fluorescence was measured on a Labsystems Fluoroskan II (360 nm excitation filter and 460 nm emission filter) over a period of 2 hours. Induction of alterations of p7NC proteins within intact virions involved treatment of HIV-1MN for 1 hour at 37° C. with 25 μM test compound. Samples were centrifuged 1 hour at 4° C. under 18,000×g to pellet the virus from the drug. Virus pellets were resolved by non-reducing SDS-PAGE and analyzed by immunoblot using monospecific rabbit antisera to the purified p7NC protein.
^b The percent decrease in RFU was calculated based on measurement of
the initial fluorescence of the p7NC protein before and 10 minutes after
treatment with the 25 μM of compound at ambient temperature.
The ability of 624151 to chemically interact with the zinc fingers of the HIV-1 p7NC protein was initially determined by a fluorescence assay (Rice et al., Science 270:1194-1197, (1995)) that measures a loss in intrinsic fluorescence of the tryptophan (Trp^37) residue in the second finger of the protein that occurs upon loss of zinc from the finger (Summers et al., Protein Sci. 1:563, 1992). […] As the 624151 modifies the zinc finger thiolates and the zinc is ejected over time, the metal is bound by the TSQ fluorochrome (FIG. 1(B)).
Sodium Phosphate buffer, pH 7.0 in 1 ml was treated with 25 μM of
compound. At indicated times, the mixture was diluted 1/10 and the
relative fluorescence units (RFU) measured in a Shimadzu RF5000
spectrofluorimeter with […] and Em = 351 mn. Following
loss of zinc from the Cterminal zinc finger, the Trp37 residue folds away
from the # aqueous environment and experiences a loss of fluorescence.

[4] = test system: CEM-SS cells; assay: XTT assay, cytotoxicity (IC50), CEM-SS cells; format: cell-based; conditions: Homo sapiens, CEM-SS, cytotoxicity, CEM-SS cells; read-out: XTT Assay IC50
Experimental: as §1, with “The 4,5-cis-dihydroxy(1,1-dioxy-1,2,-dithiohexane) compound (NSC 624151) has been abbreviated as 624151 for convenience.” left out
as §2

[5] = test system: HIV-1ADA; assay: antiviral assay in monocyte-macrophage cultures (p24); format: cell-based
Experimental: as §1, with “isolates. […]” for “isolates.”

[6] = CEM-SS cells, HIV-1RF, read-out: XTT Assay EC50
[7] = Human immunodeficiency virus 1, read-out: Mo/M.PHI. EC50

Row | Compound | IC50 [1] [µM] | IC50 [4] [µM] | EC50 [5, 7] [µM] | other results
1 | O=S1(=O)C[C@@H](O)[C@H](O)CS1 (relative stereo) [NSC 624152] | > 100 | 135 | – | EC50 [2, 6]: 13.1 µM; antiviral activity / efficacy [2]: only a slight reduction in the antiviral efficacy; reactivity with the zinc fingers [3]: equivalent reactivity with the zinc fingers; EC50 ([5]; Human immunodeficiency virus 1, HIV-1ADA, monocyte/macrophage cultures, 50% reduction in p24, read-out: Mo/M.PHI. EC50): 9.1 µM
2 | [O-][S+]1C[C@@H](O)[C@H](O)CS1 (relative stereo) [NSC 663603] | > 100 | 59.3 | > 100 | –
3 | O[C@@H]1CSSC[C@H]1O (relative stereo) [NSC 663605] | > 100 | > 200 | > 100 | –
4 | [O-][S+]1C[C@@H](O)[C@@H](O)CS1 (relative stereo) [NSC 667090] | > 100 | 103 | > 100 | antiviral activity / efficacy [2]: complete abolition of antiviral activity; reactivity with the zinc fingers [3]: essentially a complete loss of reactivity with the zinc fingers
5 | CC(=O)O[C@H]1CSS(=O)(=O)C[C@H]1OC(C)=O (relative stereo) [NSC 667091] | > 100 | 9.2 | 25 | –
6 | CC(=O)O[C@@H]1CSSC[C@H]1OC(C)=O (relative stereo) [NSC 667092] | > 100 | > 200 | > 100 | antiviral activity / efficacy [2]: complete abolition of antiviral activity; reactivity with the zinc fingers [3]: essentially a complete loss of reactivity with the zinc fingers
7 | CC(=O)O[C@@H]1CS[S+]([O-])C[C@H]1OC(C)=O (relative stereo) [NSC 667094] | > 100 | 22.1 | 5.5 | –
8 | Nc1ccn([C@H]2CC[C@@H](CO)O2)c(=O)n1 [DDC, reference compound] | – | – | – | zinc ejection [3]: do not
9 | CSC[C@H](NC(=O)COc1cccc2cnccc12)C(=O)N[C@@H](Cc1ccccc1)[C@H](O)C(=O)N1CSC[C@H]1C(=O)NC(C)(C)C [KNI-272, reference compound] | – | – | – | zinc ejection [3]: do not
10 | [O-][S+]1CCCCS1 (stereo not drawn) [NSC 56224] | > 100 | 26.2 | > 100 | –
11 | OCC1(CO)CSSC1 [NSC 72270] | > 100 | > 200 | > 100 | –
12 | NC(=O)NN=C1CSSC1 [NSC 208744] | – | 127 | – | EC50 [2, 6]: 28.7 µM
13 | O=C1NC(=O)C2(CSSC2)N1 [NSC 208750] | – | 24.8 | – | EC50 [2, 6]: 1.83 µM
14 | NC1(C(=O)O)CSSC1 [NSC 212561] | – | 10.7 | – | EC50 [2, 6]: 3.06 µM
15 | O=S1(=O)CCCCS1 [NSC 627175] | > 100 | 5.7 | 25 | –
16 | O=C(O)CCCCC1CCSS1 (stereo not drawn) [NSC 628502] | – | > 1210 | – | EC50 ([2]; read-out: XTT Assay EC50, CEM-SS cells, HIV-1RF): 590 µM
17 | CC(=O)OCC1(COC(C)=O)CSSC1 [NSC 660167] | > 100 | > 200 | > 100 | –
18 | CC(=O)OCC1(COC(C)=O)CSS(=O)(=O)C1 [NSC 661126] | > 100 | 30.3 | 21 | EC50 [2, 6]: 9.8 µM
19 | O=S1(=O)CC(CO)(CO)CS1 [NSC 661127] | – | 378 | – | EC50 [2, 6]: 34 µM
20 | [O-][S+]1CC(CO)(CO)CS1 (stereo not drawn) [NSC 661753] | > 100 | > 200 | 46 | –
21 | CC(=O)OCC1(COC(C)=O)CS[S+]([O-])C1 (stereo not drawn) [NSC 661754] | > 100 | 14.3 | > 100 | –
22 | O[C@@H]1CSSC[C@@H]1O [NSC 667089] | > 100 | 20.1 | > 100 | –
23 | CC(=O)O[C@H]1CSSC[C@H]1OC(C)=O [NSC 667093] | > 100 | > 200 | > 100 | –
24 | CC(C)OC(=O)c1cc(NC(=S)OC(C)C)ccc1Cl [UC38, reference compound] | – | – | – | zinc ejection [3]: do not
